Experimental data from paper PMC3458792 (Neuron, 2012).
Positions count from the first letter of the chain named.

Tests used:
Format in all cases: cell-based
GLR-1, STG-2 and SOL-1 [1] = biological target: T1, GLR-1, STG-2 and SOL-1 (Caenorhabditis elegans, UniProt P34299); assay: two-electrode voltage clamp, Xenopus oocytes, agonist-gated current
T1 sequence (P34299 26-962): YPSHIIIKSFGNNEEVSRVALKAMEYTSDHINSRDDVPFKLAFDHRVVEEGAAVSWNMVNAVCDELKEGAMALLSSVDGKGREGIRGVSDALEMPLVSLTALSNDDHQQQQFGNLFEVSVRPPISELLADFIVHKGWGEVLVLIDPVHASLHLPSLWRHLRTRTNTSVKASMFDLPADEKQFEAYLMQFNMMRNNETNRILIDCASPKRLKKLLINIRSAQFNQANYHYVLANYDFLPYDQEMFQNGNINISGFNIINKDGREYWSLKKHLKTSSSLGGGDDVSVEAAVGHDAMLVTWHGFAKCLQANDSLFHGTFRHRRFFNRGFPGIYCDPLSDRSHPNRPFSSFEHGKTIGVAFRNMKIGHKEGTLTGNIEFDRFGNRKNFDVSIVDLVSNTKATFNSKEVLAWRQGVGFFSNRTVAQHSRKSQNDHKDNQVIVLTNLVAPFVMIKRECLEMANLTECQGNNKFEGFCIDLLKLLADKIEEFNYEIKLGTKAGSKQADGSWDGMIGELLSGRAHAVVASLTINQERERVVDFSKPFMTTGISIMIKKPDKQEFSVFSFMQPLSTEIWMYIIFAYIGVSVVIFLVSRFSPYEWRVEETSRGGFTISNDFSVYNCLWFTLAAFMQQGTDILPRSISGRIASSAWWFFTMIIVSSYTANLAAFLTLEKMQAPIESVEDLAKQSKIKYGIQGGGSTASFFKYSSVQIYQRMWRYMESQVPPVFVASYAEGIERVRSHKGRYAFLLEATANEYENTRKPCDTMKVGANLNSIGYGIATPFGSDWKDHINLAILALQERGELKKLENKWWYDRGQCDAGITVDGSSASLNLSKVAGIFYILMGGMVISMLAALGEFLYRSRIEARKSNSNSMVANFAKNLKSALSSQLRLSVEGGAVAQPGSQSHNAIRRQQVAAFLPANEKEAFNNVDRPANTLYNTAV
T1 sequence (G5EBI8 1-357 partner): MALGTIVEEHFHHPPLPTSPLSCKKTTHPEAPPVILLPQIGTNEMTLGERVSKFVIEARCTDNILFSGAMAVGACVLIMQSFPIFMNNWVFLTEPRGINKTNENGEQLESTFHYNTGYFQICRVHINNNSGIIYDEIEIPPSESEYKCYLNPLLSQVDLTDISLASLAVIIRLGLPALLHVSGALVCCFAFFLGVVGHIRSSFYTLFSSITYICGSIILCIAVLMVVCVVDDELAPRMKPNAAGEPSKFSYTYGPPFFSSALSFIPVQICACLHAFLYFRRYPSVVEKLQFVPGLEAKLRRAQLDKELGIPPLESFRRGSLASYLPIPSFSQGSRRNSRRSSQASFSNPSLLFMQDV
T1 sequence (Q93212 24-594 partner): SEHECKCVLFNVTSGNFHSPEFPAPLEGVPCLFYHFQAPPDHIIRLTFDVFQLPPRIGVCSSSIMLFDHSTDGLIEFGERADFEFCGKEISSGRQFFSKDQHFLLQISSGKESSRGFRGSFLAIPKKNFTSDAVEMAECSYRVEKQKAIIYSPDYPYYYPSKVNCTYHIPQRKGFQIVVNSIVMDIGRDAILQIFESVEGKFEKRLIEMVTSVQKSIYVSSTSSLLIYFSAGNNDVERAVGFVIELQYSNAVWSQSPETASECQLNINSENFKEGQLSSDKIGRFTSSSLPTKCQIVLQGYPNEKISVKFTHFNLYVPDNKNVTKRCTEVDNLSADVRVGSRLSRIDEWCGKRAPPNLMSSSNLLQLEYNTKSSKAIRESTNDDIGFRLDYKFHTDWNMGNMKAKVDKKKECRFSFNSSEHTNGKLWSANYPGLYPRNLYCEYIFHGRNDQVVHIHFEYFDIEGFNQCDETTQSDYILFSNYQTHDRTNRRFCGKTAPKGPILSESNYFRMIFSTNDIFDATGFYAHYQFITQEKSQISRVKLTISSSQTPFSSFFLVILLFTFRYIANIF

[2] = biological target: GLR-1, STG-2, SOL-1 and SOL-2 (Caenorhabditis elegans, UniProt P34299); assay: as above
Sequence of GLR-1, STG-2, SOL-1 and SOL-2 (Caenorhabditis elegans, UniProt P34299) (Q9XUU2 19-436 partner, one chain of several): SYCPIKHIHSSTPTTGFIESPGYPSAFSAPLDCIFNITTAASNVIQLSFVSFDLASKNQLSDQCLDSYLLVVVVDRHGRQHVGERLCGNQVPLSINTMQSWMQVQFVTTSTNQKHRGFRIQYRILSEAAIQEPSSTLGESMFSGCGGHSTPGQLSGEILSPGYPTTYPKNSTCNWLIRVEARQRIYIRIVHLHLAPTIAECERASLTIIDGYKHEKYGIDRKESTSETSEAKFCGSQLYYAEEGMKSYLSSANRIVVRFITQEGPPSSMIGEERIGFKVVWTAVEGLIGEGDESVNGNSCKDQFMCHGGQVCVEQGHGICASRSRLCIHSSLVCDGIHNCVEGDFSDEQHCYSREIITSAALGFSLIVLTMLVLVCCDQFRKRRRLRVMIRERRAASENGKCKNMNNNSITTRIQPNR

[3] = biological target: GLR-1, STG-1, SOL-1 and SOL-2 (Caenorhabditis elegans, UniProt P34299); assay: patch clamp of C. elegans muscle cells; settings: -60 mV
Sequence of GLR-1, STG-1, SOL-1 and SOL-2 (Q9XUU2 19-436 partner, one chain of several): as above

GLR-1, STG-1 and SOL-1 = biological target: T2, GLR-1, STG-1 and SOL-1 (Caenorhabditis elegans, UniProt P34299); assay: patch clamp of C. elegans muscle cells; settings: 100 μM kainate; -60 mV; partial agonist
T2 sequence (P34299 26-962): T1 sequence (P34299 26-962)
T2 sequence (Q15KL0 1-366 partner): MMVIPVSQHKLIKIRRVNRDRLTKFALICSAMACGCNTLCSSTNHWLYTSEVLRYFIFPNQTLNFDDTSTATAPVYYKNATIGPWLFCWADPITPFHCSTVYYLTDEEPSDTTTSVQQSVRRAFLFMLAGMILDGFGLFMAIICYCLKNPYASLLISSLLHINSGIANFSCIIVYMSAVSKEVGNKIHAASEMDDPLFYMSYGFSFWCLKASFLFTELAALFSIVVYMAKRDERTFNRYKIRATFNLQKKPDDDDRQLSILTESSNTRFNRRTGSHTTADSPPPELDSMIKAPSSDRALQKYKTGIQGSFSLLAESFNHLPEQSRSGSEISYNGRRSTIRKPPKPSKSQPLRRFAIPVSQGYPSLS
T2 sequence (Q93212 24-594 partner): T1 sequence (Q93212 24-594 partner)

[4] = biological target: GLR-1, STG-2, SOL-1 and SOL-2 (Caenorhabditis elegans, UniProt P34299, Q552Y); assay: two-electrode voltage clamp, Xenopus oocytes, agonist-gated current; settings: 1 mM glutamate
Sequence of GLR-1, STG-2, SOL-1 and SOL-2 (Caenorhabditis elegans, UniProt P34299, Q552Y) (P34299 26-962 Q552Y, one chain of several): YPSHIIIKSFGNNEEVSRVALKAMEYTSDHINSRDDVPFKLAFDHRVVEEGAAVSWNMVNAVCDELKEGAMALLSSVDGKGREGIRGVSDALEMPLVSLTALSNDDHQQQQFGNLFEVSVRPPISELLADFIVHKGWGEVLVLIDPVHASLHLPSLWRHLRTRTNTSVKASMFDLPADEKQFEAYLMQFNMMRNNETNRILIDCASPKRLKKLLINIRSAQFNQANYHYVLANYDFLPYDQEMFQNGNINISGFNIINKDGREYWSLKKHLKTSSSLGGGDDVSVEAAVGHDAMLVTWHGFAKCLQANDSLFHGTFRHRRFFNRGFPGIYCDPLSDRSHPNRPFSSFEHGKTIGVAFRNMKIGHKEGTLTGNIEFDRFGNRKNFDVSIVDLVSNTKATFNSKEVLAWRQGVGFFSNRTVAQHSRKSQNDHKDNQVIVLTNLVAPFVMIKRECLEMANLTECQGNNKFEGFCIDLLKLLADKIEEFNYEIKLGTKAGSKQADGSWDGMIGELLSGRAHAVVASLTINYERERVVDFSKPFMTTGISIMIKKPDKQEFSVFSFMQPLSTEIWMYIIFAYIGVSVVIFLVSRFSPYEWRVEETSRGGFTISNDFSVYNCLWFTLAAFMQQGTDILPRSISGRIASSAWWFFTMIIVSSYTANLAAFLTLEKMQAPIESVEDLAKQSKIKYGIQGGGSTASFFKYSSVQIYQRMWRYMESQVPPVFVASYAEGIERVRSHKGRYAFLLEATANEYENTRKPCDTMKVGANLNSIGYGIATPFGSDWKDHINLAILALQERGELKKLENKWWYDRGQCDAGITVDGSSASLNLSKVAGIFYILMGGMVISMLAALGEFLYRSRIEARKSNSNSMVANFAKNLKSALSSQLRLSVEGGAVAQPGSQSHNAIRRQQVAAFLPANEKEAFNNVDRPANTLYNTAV
Sequence of GLR-1, STG-2, SOL-1 and SOL-2 (Caenorhabditis elegans, UniProt P34299, Q552Y) (Q9XUU2 19-436 partner, one chain of several): as the sequence (Q9XUU2 19-436 partner, one chain of several) above

GLR-1, STG-2 and SOL-1 [5] = biological target: T3, GLR-1, STG-2 and SOL-1 (Caenorhabditis elegans, UniProt P34299, Q552Y); assay: as above; settings: 1 mM glutamate
T3 sequence (P34299 26-962 Q552Y): T1 sequence (P34299 26-962) with Q527Y
T3 sequence (G5EBI8 1-357 partner): T1 sequence (G5EBI8 1-357 partner)
T3 sequence (Q93212 24-594 partner): T1 sequence (Q93212 24-594 partner)

[6] = 100 μM kainate, partial agonist

Row | SMILES | two-electrode voltage clamp, Xenopus oocytes, agonist-gated current (GLR-1, STG-2 and SOL-1 [1]; [6]) | two-electrode voltage clamp, Xenopus oocytes, agonist-gated current [2, 6] | patch clamp of C. elegans muscle cells [3, 6] | patch clamp of C. elegans muscle cells (GLR-1, STG-1 and SOL-1) | two-electrode voltage clamp, Xenopus oocytes, agonist-gated current (GLR-1, STG-2 and SOL-1 [1]; 1 mM glutamate, agonist) | two-electrode voltage clamp, Xenopus oocytes, agonist-gated current [4] | two-electrode voltage clamp, Xenopus oocytes, agonist-gated current ([2]; 1 mM glutamate, agonist) | patch clamp of C. elegans muscle cells ([3]; 3 mM glutamate, agonist) | two-electrode voltage clamp, Xenopus oocytes, agonist-gated current (GLR-1, STG-2 and SOL-1 [5])
1 | C=C(C)[C@H]1CN[C@H](C(=O)O)[C@H]1CC(=O)O [KA, kainate] | We recorded both glutamate- and kainate-gated currents from oocytes | The kainate-gated current appeared faster and smaller with co-expression of SOL-2 | the presence of SOL-2 markedly reduced the magnitude of the kainate-gated current | the presence of SOL-2 markedly reduced the magnitude of the kainate-gated current |  |  |  |  | 
2 | N[C@@H](CCC(=O)O)C(=O)O [Glu, glutamate] |  |  |  |  | We recorded both glutamate- and kainate-gated currents from oocytes | there was considerable desensitization when SOL-2 was co-expressed | We recorded both glutamate- and kainate-gated currents from oocytes | glutamate-gated currents of approximately the same magnitude and kinetics in transgenic muscles | glutamate-gated current recorded from Xenopus oocytes that expressed GLR-1(Q552Y), STG-2, and SOL-1 did not desensitize
